In series [1] the test system is HIV-LTR promoter in 293tat cells. As to the kind of experiment: HIV-LTR directed AP reporter expression in 293tat cells activated by tat and TNF-α. In kind it is cell-based. Conditions: Homo sapiens. The protocol: (§1) 293tat cells, a cell line stably transfected with the expression plasmids pHIV.AP and pHIV.tat, were plated onto 96-well microtiter plates at 2000 cells per well. The media were changed the next day and CT2576 was added at the indicated concentrations to the fresh media with or without TNF-α (20 ng/ml). 2 μl of medium from each well was used for AP assay 24 hr later. After culture media were withdrawn for AP assay, cytotoxicity was measured for the same cell cultures using an indicator dye, Alamar Blue™, that would change color in response to the reduction potential of cell medium due to cell growth. The left y-axis refers to the absorbance value of the reduced form of Alamar Blue™ at 570 nm with the background absorbance at 600 nm from the oxidized form of Alamar Blue™ subtracted. Each data point represents the mean of triplicate samples with error bar indicating the standard deviation of the mean.
Stable cell lines 293tar, 293tat and 293tat2 were generated by transfections using conditions described in (Tate et al., FASEB J. 4:227-231, 1990) with the plasmid pHIV.AP alone or along with either pHIV.tat or pSV2tat72, respectively. The assay of HIV-1 p24 antigen expression in the chronically HIV-1-infected promonocytic line U1 after 4 days and in acutely infected peripheral blood lymphocytes (PBL) after 7 days were described (Peterson et al., J. Clin. Invest. 89:574-580, 1992, and Brighty et al., Proc Natl. Acad. Sci. USA 88:7802-7805, 1991).
This example illustrates that CT2576 inhibited TNF-α and tat-activated HIV-LTR promoter directed expression in 293tat cells. Cell activation signals generated by interaction of ligands with receptors are eventually converted to changes in the pattern of gene expression. A reporter gene expression system under the control of the HIV-LTR promoter was set up to investigate compounds that inhibit signaling pathway for HIV activation in infected cells. […]

The test system of another series is AP mRNA in 293tat cells. In words: AP mRNA level in 293tat cells, Northern blot. Conditions: with TNF-α or IL-1β. In kind it is cell-based, human. The protocol:
Nuclear extracts (A) from 293tat cells were tested by EMSA for activation of NFκB. A radiolabeled 40-mer covering the NFκB sequences in the HIV promoter was used as a probe. Cells were incubated with CT2576 at 12 μM, human TNF-α at 40 ng/ml or IL-1β at 1 ng/ml, or pre-incubated for 30 min. with CT2576 and then stimulated with TNF-α or IL-1β for 18 hr prior to making extracts. RNA was extracted from 293tat cells (B) after treatment with CT2576 without or with TNF-α or IL-1β for 18 hr. Northern blots analysis were performed using probes derived from AP cDNA and G3PDH cDNA as a control for normalization of mRNA level. AP activity was determined in cell supernatants from the various samples.
NFκB binding activity in nuclear extracts (Dignam et al., Nucleic Acids Res. 11:1475-1489, 1983) of cells was measured by electrophoretic mobility-shift assay (EMSA) (Carthew et al., Cell 43:439-448, 1985) using 5'-labeled double-stranded synthetic DNA with two NF-κB motifs. Northern blot analysis was performed with total RNA run on 1% agarose/formaldehyde gel and probed with ^32 P-labeled cDNA of AP and glyceraldehyde-3-phosphate dehydrogenase (G3PDH).

The subject of a further series is 293tat cells. As to the kind of experiment: Viability of 293tat cells, Alamar Blue. The series is classed as cell-based, human. The procedure:
as §1
The effect of CT2576 on HIV promoter activity in 293tat cells, with the HIV.AP construct cotransfected with pHIV.tat, is shown in FIG. 15. CT2576 inhibited AP reporter gene expression by 50% with an inhibition constant (IC50) in the range of 10 μM with or without TNF-α induction. The inhibition of AP expression is the result of two events: a decrease in AP expression and a decrease in tat expression and therefore lower tat protein levels for transactivation. […]

The test system of series [2] is PA formation in EB293 cells. In words: PA and lyso (bis) PA species in TNF-stimulated EB293 cells (HPLC peaks D and A5). The series is classed as cell-based, human. Conditions: CT2576 10 μM, TNF 20 ng/ml. The text has this: One must first quantitatively and qualitatively separate PAs from the other lipids found in serum by a chemical extraction of lipids and high performance liquid chromatography (HPLC) to separate and detect PAs. Chemical extraction can be accomplished, for example, by the method of Bligh et al. (Canadian J. Biochem. Physiol. 37:911-917, 1959) or that of Folch et al. (J. Biol. Chem. 226:497-509, 1957). Briefly, the method of Bligh et al. involves an organic extraction of lipids from biological tissue homogenates or fluids. One volume of sample and three volumes of methanol:chloroform (2:1) are vigorously shaken for 2 min. One volume of chloroform is added and then shaken vigorously for 30 sec. One volume of water is added and then shaken vigorously for 30 sec. The mixture is filtered and the upper aqueous layer is discarded. The lower organic layer contains a mixture of lipid classes. The method of Folch et al. involves the extraction of lipids from biological tissue homogenates or body fluids. One volume of sample plus 20 volumes of chloroform:methanol (2:1) are vigorously shaken for 2 min. The mixture is filtered and an amount of 0.1 N KCl equal to 20% of the extraction mixture volume is added and the mixture is shaken vigorously for 2 min. The aqueous and organic phases are allowed to separate. The upper aqueous layer is discarded. […]

The source of these data is US5985926A, “Method for inhibiting intracellular viral replication” (Cell Therapeutics, Inc., priority 1997, dated 1999).

Entries after “also recorded” stand apart in the source; their conditions may differ. Read-outs that look alike come from different tables or passages of the source.

Take `CCCCCCCCNCC(O)CCCCCCCCCn1c(=O)c2c(ncn2C)n(C)c1=O` (centres unmarked) [CT2576, 1-(11-octylamino-10-hydroxyundecyl)-3,7-dimethylxanthine]: in series [1] (24 h, 293tat cells, CT2576 12 μM, after TNF-α or IL-1β induction, read-out: decrease in AP activity after TNF-α or IL-1β induction), the inhibition at 12 µM fell in the range of 83 to 90%. Further, the IC50 in series [1] (read-out: IC50, TNF-α induced HIV-LTR directed AP expression, 293tat cells, with TNF-α (20 ng/ml)) was about 10 µM. Besides, the IC50 in series [1] (read-out: IC50, tat-dependent HIV-LTR directed AP expression, 293tat cells, tat activation, without TNF-α) was about 10 µM. Besides, the “AP transcript / mRNA steady-state level” value in the series on AP mRNA in 293tat cells is recorded as “increase in mRNA level; also recorded: did not block expression at the transcription stage”. In the series on 293tat cells (Alamar Blue), the “cytotoxic concentration (not cytotoxic at concentrations up to), 293tat cells” value is over 32 µM. In addition, the “cytotoxic effect, 293tat cells” value with 293tat cells (in words) was “minimal cytotoxic effect”. In series [2], the “PA mass (peak D), TNF-stimulated EB293 cells” value is reported as “reduced PA mass across all time points measured” and the “lyso (bis) PA species (peak A5), TNF-stimulated EB293 cells” value is recorded as “increased lyso (bis) PA species across all time points”.
